Experiment [1] concerns Unpolarized Th0 (from naive CD4 T cells of C57BL/6 mice). Put plainly: Unpolarized Th0 cells cultured with DDA, flow cytometry. It counts as cell-based, mouse. The method, then: FIGS. 3A-D. Unpolarized Th0 (prepared from naive CD4 T cells isolated from the spleen of C57BL/6 mice were cultivated in presence of anti-CD3, anti-CD28 and recombinant IL-2 as indicated in the “Materials and methods” section”) and with gradual concentration of DDA added at day 0 of culture (condition #1) or Day 4 of culture (condition #2). At the end, for each condition, the percentage of Th1 (CD4+Tbet+IFNg+) (A,B) and Treg CD4+Foxp3+IL10+ (C,D) was measured by flow cytometry.
Immune cell culture. Isolated CD4+ or CD8+ T cells were cultures in 96-well flat bottom plates (0.25×10^6 cells per wells) in 0.25 ml of complete RPMI 1640 media (10% FBS, 1% penicillin/Streptomycin, 1% sodium pyruvate, 1% HEPES and 50 μM b-mercaptoethanol) in the presence of 10 μg/ml plate-bound anti-mouse CD3 (2C11) and 2 μg/ml soluble α-CD28 (LEAF) in addition to 50 ng/ml of recombinant IL-2 (e-bioscience). DDA (synthesized by Affichem) diluted in the solvent vehicle was added at increasing concentration (0-1-10-100 and 1000 nM). […] After 5 days of culture, cells were collected and analyzed by flow cytometry. To investigate the impact of DDA on polarization of CD4 or CD8 naive T cells, DDA or the solvent vehicle was added at the beginning of culture at Day 0 or at Day 4 and cells was analyzed at day 5 by flow cytometry.

The test system of a further experiment is B16F10 cells. As to the kind of experiment: Multivesicular bodies and exosome secretion of B16F10 cells treated with DDA. It counts as cell-based, mouse.
Experiment [2] deals with human and murine mammary tumor cells. Put plainly: Exosome secretion of mammary tumor cells treated with DDA. As to conditions: data not shown. It counts as cell-based.
Another experiment concerns SKMEL-28 cells. Put plainly: Exosome production of SKMEL-28 cells (shCTRL or shLXRbeta) treated with DDA. In kind it is cell-based, human. As to conditions: for production of exosomes: 2.5 μM DDA for 24 h. The method, then:
Obtention of LXRβ knock-down cells. SKMEL28 cells ([…]) or E0771 (3×10^6) were transfected with the Neon Transfection System (Invitrogen) with 1 μg or 3 μg of small hairpin RNA targeting human LXRβ or mouse LXRβ (two different shRNA were used) or with 1 μg control ShRNA. Transfected cells were selected in multiwell plates (10 000 cells/well) with puromycin ranging from 1-10 μg/ml. Two clones transfected with two different shRNA against LXRβ with LXRβ expression knocked-down by 70% and 80% (for SKMEL28) and by 90% and 95% (for E0771) and two control clones were selected.
Exosome quantification. 1) Protein content in exosomes was quantified by the spectrophotometric method of Lowry in presence of 0.1% w/v sodium dodecyl […]. 2) Exosomes were also quantified by flow cytometry following labeling with the fluorescent lipid Bodipy-ceramide (Invitrogen-Molecular Probes) for 1 hour at 37° C. Excess of Bodipy-ceramide was removed by filtration and washing through the 1000 kDa Vivaspin filter and exosomes were quantitated by FACS. 3) Numeration of exosomes vesicles was performed either by nano tracking analysis (Nanosight equipment, Malvern, France) or by TRPS (tunable resistive pulse sensing) technology (qNano equipment, Izon, UK).

For experiment [3], the system named is naive CD4 T cells from the spleen of WT or LXRαβKO mice. Put plainly: Polarization of naive CD4 T cells from WT or LXRαβKO mice in presence of DDA. In kind it is cell-based, mouse. The method, then:
FIGS. 9A-B. Sorted naive CD4 T cells were isolated from the spleen of WT or LXRαβKO mice (collaboration with Hervé Guillou, INRA, Toulouse) and activated in the indicated Th1 or Treg polarizing conditions. These cells were cultured in the presence of increasing concentrations of DDA. After 96 hours, the percentage of (A) Th1: CD4+Tbet+IFNg+ and (B) Treg: CD4+Foxp3+IL10+ cells was measured by flow cytometry and expressed relative to the control.
FIG. 10. Sorted naive CD4 T cells were isolated from the spleen of WT or LXRαβKO mice and activated in Th2 polarizing conditions. These cells were cultured in the presence of increasing concentrations of DDA. After 96 hours, the percentage of Th2: CD4+GATA3+IL4+ cells was measured by flow cytometry and expressed relative to the control.

Experiment [4] relates to Bone marrow of WT or LXRαβKO mice. As to the kind of experiment: Bone marrow dendritic cell differentiation (GM-CSF) from WT or LXRαβKO mice in presence of DDA. In kind it is cell-based, mouse. The method, then:
FIGS. 11A-B. Bone marrow was isolated from the tibia and femur of WT or LXRαβKO mice and cultivated with 20 ng/ml GM-CSF and in presence of increasing concentrations of DDA. At day 3 and 5 half of medium was replaced by fresh medium containing GM-CSF. After 7 days of culture, the percentage of (A) differentiated CD11c+CD8a dendritic cell (B) mature CD11c+CD8a+ dendritic cells (CD11c+CD8a+CD86hi CCR7hi) was measured by flow cytometry and expressed relative to the control.
FIG. 12. Bone marrow was isolated from the tibia and femur of WT or LXRαβKO mice and cultivated with 20 ng/ml GM-CSF and in presence of increasing concentrations of DDA. At day 3 and 5 half of medium was replaced by fresh medium containing GM-CSF. After 7 days of culture, the mean of florescence (MFI) of MHC class II expressed on the surface of CD11c dendritic cells: CD11c+H2db+ was measured by flow cytometry and expressed relative to the control.

In experiment [5] the test system is tumor cells implanted in mice. The following applies: de Medina et al., Nat Commun. 2013; cited from earlier work.
[6] abbreviates: WT, 7 days of culture (FIG. 11).

As to `CC(C)CCCC(C)[C@H]1CCC2C3C[C@@H](NCCc4cnc[nH]4)[C@@]4(O)C[C@@H](O)CC[C@]4(C)C3CC[C@@]21C` (stereo partly drawn) [DDA, 5a-hydroxy-6b-[2-(1H-imidazol-4-yl)ethylamino]cholestan-3b-ol], in experiment [1] (unpolarized Th0, DDA at day 0 or day 4 (FIG. 3)), the “Th0 into Th1 differentiation” value was “does not activated”. Also, the “differentiation of Th0 into Treg phenotype” value in experiment [1] (unpolarized Th0, DDA at day 0 or day 4, more impressive at day 4 (FIG. 3)) is “inhibits”. Also, the “production of exosome secreted into the media” value in the experiment with B16F10 cells (data not shown) lay in the range of 1.5 to 2 fold. In the experiment with B16F10 cells (electronic microscopy), the “amount of multivesicular bodies (MVB)” value is listed as “stimulates”. Further, the “production of exosome secreted into the media” value in experiment [2] is reported as “also observed”. Further, in the experiment on SKMEL-28 cells (SKMEL-28-shCTRL cells), the production of exosomes entry is given as “about 2 fold”. The production of exosomes entry in the experiment on SKMEL-28 cells (SKMEL-28-shLXRbeta cells) is on record as “does not stimulate”. For the same compound, the “exosome secretion from human melanoma cells” value with SKMEL-28 cells (SKMEL-28 cells, data not shown) is listed as “stimulates exosome secretion”. Further, in experiment [3] (LXRαβKO mice), the “DDA effect on Th1 differentiation” value is “abrogated” and the “DDA effect on Treg differentiation” value is “abrogated”. Besides, the “differentiation of Th0 into Th1” value in experiment [3] (WT mice, Th1 polarizing conditions, 96 h (FIG. 9)) is “increases”. Also, the “differentiation of Th0 into Treg” value in experiment [3] (WT mice, Treg polarizing conditions, 96 h (FIG. 9)) is “decreases”. Besides, the Th2 differentiation entry in experiment [3] (WT or LXRαβKO mice, Th2 polarizing conditions, 96 h (FIG. 10)) is listed as “no impact”. For the same compound, the “MHC II expression at the surface of CD11c dendritic cells” value in experiment [4] (1 μM DDA, WT (FIG. 12)) is on record as “increases”. Also, in experiment [4] (setting [6]), the “differentiation of CD11c into CD11c CD8a+ dendritic cells” value is “increases” and the “maturation of CD11c CD8a+ dendritic cells (CD86hi CCR7hi)” value is “increases”. Further, in experiment [4] (in absence of LXR (LXRαβKO)), the “effect on MHC II expression at the surface of CD11c dendritic cells” value is listed as “abrogated”; the “effect on differentiation and maturation of CD11c CD8a+ dendritic cells” value is on record as “abolished”. In experiment [5], the animal survival result is on record as “improves animal survival”; the “growth of tumor cells implanted in mice” value was “control the growth”; the “infiltration of CD3+ T lymphocytes and CD11c+ dendritic cells” value is “increased infiltration”.

The values above are taken from patent publication US20230138400A1, “METHODS AND PHARMACEUTICAL COMPOSITIONS FOR REPROGRAMING IMMUNE ENVIRONMENT IN A SUBJECT IN NEED THEREOF” (INSERM (INSTITUT NATIONAL DE LA SANTE ET DE LA RECHERCHE …, priority 2016, published 2023).
